In patent publication US8455495B2, “Pyridazino-pyridinone compounds and methods of use” (Amgen Inc., priority 2008, dated 2013):
Where two headings read alike, the source gives them in different places.

Legend:
[1] = target: recombinant human p38α (Homo sapiens, UniProt Q16539); assay: Purified and activated recombinant human p38α HTRF assay; format: biochemical; details: 1 nM p38α, 50 μM ATP, GST-ATF2 substrate, read-out: p38a IC50
Procedure: Purified and Activated Recombinant Human p38α Assay Kinase Reaction Buffer: […] HTRF Detection Buffer: […] Serial Dilution of Compounds: […] Columns 6 and 12 (HI controls and LO controls respectively) in the drug plate were reserved as controls and contained only DMSO. Kinase Reaction: […] See table below for actual concentrations. In the absence of substrate, the background was measured as LO control. […] Assay Reagent Concentrations: […] HTRF Detection: […] After 60 minutes incubation at room temperature, the assay plate was read in a Discovery Plate Reader. The wells were excited with coherent 320 nm light and the ratio of delayed ([…] post excitation) emissions at […] (native europium fluorescence) and 665 nm (europium fluorescence transferred to allophycocyanin-an index of substrate phosphorylation) was determined (Park et al, 1999). Data Analysis: […] Data (consisting of POC and inhibitor concentration in μM) was fitted to a 4-parameter equation ([…]))), where A is the minimum y (POC) value, B is the maximum y (POC), C is the x (compound concentration) at the point of inflection and D is the slope factor, using a Levenburg-Marquardt non-linear regression algorithm. The inhibition constant (Ki) of the inhibitor was estimated from the IC50 (compound concentration at the point of inflection C) using the Cheng-Prussof equation: […] All results were expressed as the mean±the standard error of the mean. Data acquisition and non-linear regression algorithms were performed using Activity Base v5.2 and XL-fit software v4.1 respectively. All data was archived using Activity Base v5.2 software.

[2] = test system: TNF-α induced IL-8 in 50% human whole blood; assay: Inhibition of TNF-α induced IL-8 in 50% human whole blood; format: cell-based
Procedure: Inhibition of TNF-α Induced IL-8 in 50% Human Whole Blood
Test compounds were evaluated in vitro for the ability to inhibit the production of secreted IL-8 by whole blood activated with TNF-α. Fresh human whole blood was obtained from healthy, non-medicated volunteers in sodium heparin tubes.
Compound Dilution—Assay Procedure
Test compounds are serially diluted 1:3 in DMSO and then diluted 1:250 into R10 (RPMI 1640, 10% human serum AB, 1× pen/strep/glutamine) to the 4× working concentration to be used in the assay. 100 ul heparinized whole blood is plated into wells of 96 well flat bottom plates. 50 ul of either 4× compound or DMSO control (Final DMSO concentration is 0.1%) are added to the appropriate wells. Plates are incubated for 1 hour at 37 degrees Celsius. 50 ul of 4×TNF-α (4 nM TNF-α, for a final concentration of 1 nM) or control (media alone) is added to the appropriate wells (Total volume=200 ul). Plates are incubated overnight (16-18 hours). 100 ul of supernatant is collected and stored in 96-well round bottom polypropylene plates at −80 degrees Celsius or assayed immediately for IL-8.
Cytokines are measured on antibody (Ab) sandwich ECL based 96-well detection plates. 20 ul of supernatant are added to plate and plate is sealed and shaken at RT for 1 hour. 130 ul of detection Ab cocktail is added and plates are sealed and shaken for 1 hour in the dark at RT. Plates are read on MSD Sector HTS instrument. Data are analyzed and IC50 values generated using Activity Base and X1-fit programs.

[3] = test system: production of IL-1β, IL-6, and TNF-α by PBMC activated with LPS; assay: Lipopolysaccharide-activated PBMC cytokine production assay; format: cell-based; details: Homo sapiens, LPS 100 ng/mL, 18 hours, read-out: IC50 in PBMC cytokine production assay
Procedure: Lipopolysaccharide-Activated Pbmc Cytokine Production Assay
Test compounds were evaluated in vitro for the ability to inhibit the production of IL-1β, IL-6, and TNF-α by PBMC activated with bacterial lipopolysaccharide (LPS). Fresh leukocytes were obtained from a local blood bank, and peripheral blood mononuclear cells (PBMCs) were isolated by density gradient centrifugation on Ficol-Paque Plus (Pharmacia).
Preparation of Test Compound Stock Solutions
All reagents were prepared in RPMI 1640+10% v/v human AB serum+1× Pens/Strep/Glu (assay medium). Test compounds were dissolved in 100% DMSO and serially diluted in 96-well polypropylene round bottom micro titer plates (drug plate). Serial dilutions were then diluted 1:250 into assay medium to a 4× working concentration. Compound serial dilutions were half-log, 10 point titrations with a final starting concentration of 1 μM.
Treatment of Cells with Test Compounds and Activation with Lipopolysaccharide
LPS was prepared to a 4× concentration in assay medium. 100 μl of PBMC (1×10^6 cells/ml) were plated in a 96-well polystyrene flat bottom micro titer tissue culture plate and incubated with 50 μl of 4× compound serial dilution for 1 hour at 37° C., 5% CO2 in a tissue culture incubator. 50 μl 4×LPS or control was added and the plates were incubated at 37° C., 5% CO2 in a tissue culture incubator for 18 hours. The final DMSO concentration was 0.1%. The total volume was 200 μL. The final LPS concentration was 100 ng/mL. After 18 hours culture supernatants were removed and IL-1β, IL-6, and TNF-α presence in the supernatants was quantified using MSD ECL based technology.
20 μL of culture supernatant were added to MSD plates, and incubated for one hour at room temperature. 20 μL of detection antibody diluted in antibody diluent (1 μg/mL), and 110 μL of 2× Read Buffer P was added, and incubated for one hour at RT. Electrochemiluminescence was measured using the SECTOR HTS Imager (MSD, Gaithersburg, Md.).
Compound IC50 values were calculated as follows: The proportion of cytokine production in the presence of compound compared to the cytokine production in the presence of the DMSO vehicle alone (Hi control) was calculated using the formula: Percent Control (POC)=(compound−average Lo)/(average Hi−average Lo)*100.

[4] = test system: TNF-α production by LPS-activated THP1 cells; assay: Lipopolysaccharide-activated THP1 cell TNF production assay; format: cell-based; details: Homo sapiens, THP-1; THP1 cells, LPS, 3 hours; read-out: IC50 in THP-1 cellular TNF production assay
Procedure: Lipopolysaccharide-Activated THP1 Cell TNF Production Assay
THP1 cells were resuspended in fresh THP1 media (RPMI 1640, 10% heat-inactivated FBS, 1×PGS, 1×NEAA, plus 30 μM βME) at a concentration of 1.5×10^6 cells per mL. One hundred microliters of cells per well were plated in a polystyrene 96-well tissue culture plate. 1.5 micrograms per mL of bacterial LPS was prepared in THP1 media and transferred to the first 11 columns of a 96-well polypropylene plate. Column 12 contained only THP1 media for the LO control. Compounds were dissolved in 100% DMSO and serially diluted 3 fold in a polypropylene 96-well microtiter plate (drug plate). Columns 6 and 12 were reserved as controls (HI controls and LO controls respectively) and contained only DMSO. 10 μL of LPS followed by one microliter of inhibitor compound from the drug plate was transferred to the cell plate. The treated cells were induced to synthesize and secrete TNF-α in a 37° C. humidified incubator with 5% CO2 for 3 hours. Fifty microliters of conditioned media was transferred to a 96-well MULTI-ARRAY™ 96-well small spot plate—custom coated with MAB610 containing 100 μL of 2× Read Buffer P supplemented with 0.34 nM AF210NA polyclonal Ab labeled with ruthenium (MSD—Sulfo-TAG™—NHS ester). After an overnight incubation at room temperature with shaking, the reaction was read on the Sector Imager™ 6000. […] The amount of secreted TNF-α in the presence of test compounds compared with that in the presence of DMSO vehicle alone (HI control) was calculated using the formula: % control (POC)=(cpd−average LO)/(average HI−averageLO)*100. Data (consisting of POC and inhibitor concentration in μM) was fitted to a 4-parameter equation (y=A+((B−A)/(1+((x/C)^D))), where A is the minimum y (POC) value, B is the maximum y (POC), C is the x (cpd concentration) at the point of inflection and D is the slope factor) using a Levenburg-Marquardt non-linear regression algorithm.

[5] = TNF-α (1 nM) induced IL-8, 50% human whole blood, 16-18 h, read-out: WB TNF/IL8 IC50

Chain of recombinant human p38α (Q16539 whole entry): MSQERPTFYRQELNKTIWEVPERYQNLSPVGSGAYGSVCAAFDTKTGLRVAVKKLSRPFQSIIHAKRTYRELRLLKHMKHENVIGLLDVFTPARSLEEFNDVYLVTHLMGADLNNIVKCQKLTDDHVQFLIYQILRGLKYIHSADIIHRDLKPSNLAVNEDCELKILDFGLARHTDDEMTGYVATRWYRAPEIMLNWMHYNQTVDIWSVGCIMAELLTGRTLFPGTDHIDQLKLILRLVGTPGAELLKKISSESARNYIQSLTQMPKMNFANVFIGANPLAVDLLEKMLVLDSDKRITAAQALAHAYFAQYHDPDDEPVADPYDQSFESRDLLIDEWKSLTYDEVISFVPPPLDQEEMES

Row | Structure (SMILES) | IC50 [1] | IC50 [4] | IC50 [2, 5] | IC50 ([2]; read-out: WB TNF/IL8 IC50, TNF-α (1 nM) induced IL-8, 50% human whole blood, 16-18 h) | IC50 [3]
1 | Cn1c(=O)c(-c2cc(C(=O)O)ccc2Cl)cc2cnnc(-c3ccc(F)cc3F)c21 [Example 4, 4-chloro-3-(8-(2,4-difluorophenyl)-1-methyl-2-oxo-1,2-dihydropyrido[3,2-d]pyridazin-3-yl)benzoic acid] | > 1000 nM |  |  | > 2500 nM | 
2 | Cc1ccc(C(=O)Nc2ccnn2C)cc1-c1cc2cnnc(-c3ccc(F)cc3F)c2n(C)c1=O [Example 15, 3-(8-(2,4-difluorophenyl)-1-methyl-2-oxo-1,2-dihydropyrido[2,3-d]pyridazin-3-yl)-4-methyl-N-(1-methyl-1H-pyrazol-5-yl)benzamide] | 7.5 nM | ≤ 1000 nM | 4.1 nM |  | ≤ 1000 nM
3 | Cc1ccc(C(=O)NC2(C)CC2)cc1-c1cc2cnnc(-c3ccc(F)cc3Cl)c2n(C)c1=O [Example 20, 3-(8-(2-chloro-4-fluorophenyl)-1-methyl-2-oxo-1,2-dihydropyrido[2,3-d]pyridazin-3-yl)-4-methyl-N-(1-methylcyclopropyl)benzamide] | 4.1 nM | ≤ 1000 nM | 15.6 nM |  | ≤ 1000 nM
4 | Cc1ccc(C(=O)Nc2ccon2)cc1-c1cc2cnnc(-c3ccccc3Cl)c2n(C)c1=O [Example 25, 3-(8-(2-chlorophenyl)-1-methyl-2-oxo-1,2-dihydropyrido[2,3-d]pyridazin-3-yl)-N-3-isoxazolyl-4-methylbenzamide] | 0.9 nM | ≤ 1000 nM |  |  | ≤ 1000 nM
5 | Cc1ccc(C(=O)NC2CC2)cc1-c1cc2cnnc(-c3ccc(S(C)(=O)=O)cc3C)c2n(C)c1=O [Example 26, N-cyclopropyl-4-methyl-3-(1-methyl-8-(2-methyl-4-(methylsulfonyl)phenyl)-2-oxo-1,2-dihydropyrido[2,3-d]pyridazin-3-yl)benzamide] | 3.3 nM |  | 10 nM |  | 
6 | Cc1cc(S(C)(=O)=O)ccc1-c1nncc2cc(-c3cc(C(=O)NC4CC4)cc(F)c3C)c(=O)n(C)c12 [Example 27, N-cyclopropyl-3-fluoro-4-methyl-5-(1-methyl-8-(2-methyl-4-(methylsulfonyl)phenyl)-2-oxo-1,2-dihydropyrido[2,3-d]pyridazin-3-yl)benzamide] | 2.5 nM |  | 3.9 nM |  | 
7 | CCn1c(=O)c(-c2cc(C(=O)NC3CC3)ccc2C)cc2cnnc(-c3ccccc3Cl)c21 [Example 28, 3-(8-(2-chlorophenyl)-1-ethyl-2-oxo-1,2-dihydropyrido[2,3-d]pyridazin-3-yl)-N-cyclopropyl-4-methylbenzamide] | 1 nM |  | 1 nM |  | 

Second part, led by results:

Row | IC50 [1] | IC50 [4] | IC50 [2, 5] | Structure (SMILES) | IC50 ([2]; read-out: WB TNF/IL8 IC50, TNF-α (1 nM) induced IL-8, 50% human whole blood, 16-18 h) | IC50 [3]
8 | 1.7 nM | ≤ 1000 nM | 2.2 nM | Cc1ccc(C(=O)NC2CC2)cc1-c1cc2cnnc(-c3cc(F)ccc3Cl)c2n(C)c1=O [Example 18, 3-(8-(2-chloro-5-fluorophenyl)-1-methyl-2-oxo-1,2-dihydropyrido[2,3-d]pyridazin-3-yl)-N-cyclopropyl-4-methylbenzamide] |  | ≤ 1000 nM
9 | 3 nM | ≤ 1000 nM |  | Cc1ccc(C(=O)NC2(C)CC2)cc1-c1cc2cnnc(-c3ccc(F)cc3F)c2n(C)c1=O [Example 29, 3-(8-(2,4-difluorophenyl)-1-methyl-2-oxo-1,2-dihydropyrido[2,3-d]pyridazin-3-yl)-4-methyl-N-(1-methylcyclopropyl)benzamide] |  | ≤ 1000 nM
10 | 14 nM |  | 38 nM | Cc1cnc(C(=O)NC2CC2)cc1-c1cc2cnnc(-c3ccc(F)cc3F)c2n(C)c1=O [Example 30, N-cyclopropyl-4-(8-(2,4-difluorophenyl)-1-methyl-2-oxo-1,2-dihydropyrido[2,3-d]pyridazin-3-yl)-5-methyl-2-pyridinecarboxamide] |  | 
11 | 2.7 nM |  | 30 nM | CNC(=O)c1ccc(C)c(-c2cc3cnnc(-c4ccc(F)cc4F)c3n(C)c2=O)c1 [Example 31, 3-(8-(2,4-difluorophenyl)-1-methyl-2-oxo-1,2-dihydropyrido[2,3-d]pyridazin-3-yl)-N,4-dimethylbenzamide] |  | 
12 | 1.2 nM |  | 7.3 nM | Cc1ccc(C(=O)Nc2nccs2)cc1-c1cc2cnnc(-c3ccc(F)cc3F)c2n(C)c1=O [Example 32, 3-(8-(2,4-difluorophenyl)-1-methyl-2-oxo-1,2-dihydropyrido[2,3-d]pyridazin-3-yl)-4-methyl-N-1,3-thiazol-2-ylbenzamide] |  | 
13 |  |  | 1.7 nM | Cc1ccc(C(=O)Nc2ccon2)cc1-c1cc2cnnc(-c3ccc(F)cc3F)c2n(C)c1=O [Example 33, 3-(8-(2,4-difluorophenyl)-1-methyl-2-oxo-1,2-dihydropyrido[2,3-d]pyridazin-3-yl)-N-3-isoxazolyl-4-methylbenzamide] |  | 
